Data on one compound can be found in patent US20140228384A1, “ASSAYS AND BIOMARKERS FOR LRRK2” (Genentech, Inc., priority 2011, published 2014).

One test addresses LRRK2 (Homo sapiens, UniProt Q5S007). Nature of the test: biochemical.
Test [1] deals with hippocampal neurons derived from LRRK2 BAC transgenic mice. The conditions noted are these: dose-dependent manner.

LRRK2, sequence (Q5S007 whole entry): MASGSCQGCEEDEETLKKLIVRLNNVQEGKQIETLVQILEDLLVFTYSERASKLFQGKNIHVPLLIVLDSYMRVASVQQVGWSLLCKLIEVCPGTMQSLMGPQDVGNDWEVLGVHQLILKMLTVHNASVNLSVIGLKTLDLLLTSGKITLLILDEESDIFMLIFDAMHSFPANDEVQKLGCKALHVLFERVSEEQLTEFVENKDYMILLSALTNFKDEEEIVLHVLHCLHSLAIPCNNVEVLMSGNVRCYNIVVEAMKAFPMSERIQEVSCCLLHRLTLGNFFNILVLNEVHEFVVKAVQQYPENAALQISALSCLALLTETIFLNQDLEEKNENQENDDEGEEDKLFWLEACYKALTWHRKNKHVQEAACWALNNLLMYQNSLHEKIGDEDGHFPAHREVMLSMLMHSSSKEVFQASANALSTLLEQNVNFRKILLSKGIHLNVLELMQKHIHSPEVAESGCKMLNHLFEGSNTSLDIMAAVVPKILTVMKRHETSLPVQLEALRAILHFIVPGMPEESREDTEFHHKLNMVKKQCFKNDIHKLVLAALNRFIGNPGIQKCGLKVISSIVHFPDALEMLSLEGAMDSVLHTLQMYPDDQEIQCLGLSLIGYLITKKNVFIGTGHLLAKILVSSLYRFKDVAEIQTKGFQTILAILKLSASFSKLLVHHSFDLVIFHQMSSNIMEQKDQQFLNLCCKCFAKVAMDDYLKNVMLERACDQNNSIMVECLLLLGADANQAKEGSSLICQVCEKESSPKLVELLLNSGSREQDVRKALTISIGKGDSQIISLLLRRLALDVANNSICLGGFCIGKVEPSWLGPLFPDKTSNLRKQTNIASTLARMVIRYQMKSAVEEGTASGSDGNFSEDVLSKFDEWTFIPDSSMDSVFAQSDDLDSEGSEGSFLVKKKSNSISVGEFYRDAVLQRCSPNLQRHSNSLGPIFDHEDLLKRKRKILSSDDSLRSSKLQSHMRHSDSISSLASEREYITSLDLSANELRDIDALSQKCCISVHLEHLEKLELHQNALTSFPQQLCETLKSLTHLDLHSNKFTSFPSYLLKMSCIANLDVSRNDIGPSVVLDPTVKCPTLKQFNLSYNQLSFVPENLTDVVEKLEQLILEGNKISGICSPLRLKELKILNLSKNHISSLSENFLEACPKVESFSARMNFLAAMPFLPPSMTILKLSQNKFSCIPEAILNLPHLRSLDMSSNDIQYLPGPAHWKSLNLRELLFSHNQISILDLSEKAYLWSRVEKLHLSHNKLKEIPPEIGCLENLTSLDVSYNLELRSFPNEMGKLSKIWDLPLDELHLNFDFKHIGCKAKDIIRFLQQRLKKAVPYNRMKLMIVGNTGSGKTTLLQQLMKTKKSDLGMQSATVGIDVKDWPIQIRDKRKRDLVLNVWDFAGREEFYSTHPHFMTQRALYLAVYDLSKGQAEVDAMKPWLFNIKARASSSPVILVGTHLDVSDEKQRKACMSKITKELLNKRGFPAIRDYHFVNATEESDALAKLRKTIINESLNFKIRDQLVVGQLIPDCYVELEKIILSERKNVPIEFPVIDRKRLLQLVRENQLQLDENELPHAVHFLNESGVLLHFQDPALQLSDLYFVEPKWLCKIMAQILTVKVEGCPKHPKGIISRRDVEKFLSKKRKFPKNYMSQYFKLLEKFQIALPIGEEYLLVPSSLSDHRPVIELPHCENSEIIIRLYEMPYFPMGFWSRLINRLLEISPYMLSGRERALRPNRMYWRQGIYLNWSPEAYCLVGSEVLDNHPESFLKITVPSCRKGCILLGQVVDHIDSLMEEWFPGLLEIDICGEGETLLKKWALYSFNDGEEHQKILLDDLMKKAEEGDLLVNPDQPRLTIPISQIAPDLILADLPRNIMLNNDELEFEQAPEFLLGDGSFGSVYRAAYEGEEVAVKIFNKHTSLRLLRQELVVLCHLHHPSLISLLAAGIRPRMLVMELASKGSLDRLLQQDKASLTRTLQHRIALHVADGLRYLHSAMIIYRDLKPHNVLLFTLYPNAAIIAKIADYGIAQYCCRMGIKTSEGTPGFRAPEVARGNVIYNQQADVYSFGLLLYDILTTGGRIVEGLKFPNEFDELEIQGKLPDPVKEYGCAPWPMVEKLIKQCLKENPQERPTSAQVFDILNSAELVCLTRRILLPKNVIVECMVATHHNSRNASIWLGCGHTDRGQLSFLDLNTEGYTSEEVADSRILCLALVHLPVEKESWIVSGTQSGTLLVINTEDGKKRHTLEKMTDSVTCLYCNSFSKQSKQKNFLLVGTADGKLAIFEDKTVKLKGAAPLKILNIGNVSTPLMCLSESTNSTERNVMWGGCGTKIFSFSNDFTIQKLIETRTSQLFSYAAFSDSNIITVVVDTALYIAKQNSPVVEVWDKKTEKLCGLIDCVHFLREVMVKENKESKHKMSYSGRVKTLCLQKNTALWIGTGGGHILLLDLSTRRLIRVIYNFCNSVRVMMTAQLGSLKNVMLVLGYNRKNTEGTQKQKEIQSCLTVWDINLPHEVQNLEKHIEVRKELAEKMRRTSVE

In the case of `CNc1nc(Nc2ccc(C(=O)N3CCOCC3)cc2OC)ncc1C(F)(F)F` [G1023, [3-methoxy-4-(4-methylamino-5-trifluoromethyl-pyrimidin-2-ylamino)-phenyl]-morpholin-4-yl-methanone], the Ki (in general, the equilibrium dissociation constant of an inhibitor or competing ligand from its target) on LRRK2 is around 4 nM. For the same compound, the “neurite outgrowth defect (total neurite length)” value in test [1] is “reversed neurite outgrowth defect”.
